In patent publication US20240101572A1, “DIHYDROOXADIAZINONE COMPOUND AND PHARMACEUTICAL USE THEREOF” (Japan Tobacco Inc., priority 2022, published 2024):
Where two headings read alike, the source gives them in different places.

Tests used:
full-length human PLD1 = full-length human PLD1 (Homo sapiens (Human), UniProt Q13393); experiment: Evaluation of human PLD1 enzyme inhibitory activity (Amplex Red / choline oxidase fluorescence); format: biochemical; settings: for IC50: full-length human PLD1 enzyme, read-out: PLD1 IC50
Procedure, shortened: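 N-terminally FLAG-tagged full-length human PLD1 (1-1036), expressed in Expi293F and FLAG-purified, incubated with compound (5% DMSO final) and 1,2-diheptanoyl-sn-glycero-3-phosphocholine for 60 min at room temperature in HEPES pH 7.5 buffer. Released choline detected by Amplex Red/choline oxidase/HRP fluorescence.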

full-length human PLD2 = full-length human PLD2 (Homo sapiens (Human), UniProt O14939); experiment: Evaluation of human PLD2 enzyme inhibitory activity (Amplex Red / choline oxidase fluorescence); format: biochemical; settings: for IC50: full-length human PLD2 enzyme, read-out: PLD2 IC50
Procedure, shortened: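 Enzyme was N-terminal FLAG-tagged full-length human PLD2 (1-933), expressed in Expi293F cells and anti-FLAG purified. Compound (5% DMSO final) was incubated with enzyme (6 nmol/L solution) and 1,2-diheptanoyl-PC (6 mmol/L solution) in HEPES pH 7.5, KCl, EGTA, MgCl2, NP-40, BSA buffer for 60 min at room temperature. Choline was detected with Amplex Red/choline oxidase/HRP.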

[1] = read-out: inhibition rate of PLD1 at 10 μM compound
[2] = read-out: inhibition rate of PLD2 at 10 μM compound

Chain of full-length human PLD2 (O14939 whole entry): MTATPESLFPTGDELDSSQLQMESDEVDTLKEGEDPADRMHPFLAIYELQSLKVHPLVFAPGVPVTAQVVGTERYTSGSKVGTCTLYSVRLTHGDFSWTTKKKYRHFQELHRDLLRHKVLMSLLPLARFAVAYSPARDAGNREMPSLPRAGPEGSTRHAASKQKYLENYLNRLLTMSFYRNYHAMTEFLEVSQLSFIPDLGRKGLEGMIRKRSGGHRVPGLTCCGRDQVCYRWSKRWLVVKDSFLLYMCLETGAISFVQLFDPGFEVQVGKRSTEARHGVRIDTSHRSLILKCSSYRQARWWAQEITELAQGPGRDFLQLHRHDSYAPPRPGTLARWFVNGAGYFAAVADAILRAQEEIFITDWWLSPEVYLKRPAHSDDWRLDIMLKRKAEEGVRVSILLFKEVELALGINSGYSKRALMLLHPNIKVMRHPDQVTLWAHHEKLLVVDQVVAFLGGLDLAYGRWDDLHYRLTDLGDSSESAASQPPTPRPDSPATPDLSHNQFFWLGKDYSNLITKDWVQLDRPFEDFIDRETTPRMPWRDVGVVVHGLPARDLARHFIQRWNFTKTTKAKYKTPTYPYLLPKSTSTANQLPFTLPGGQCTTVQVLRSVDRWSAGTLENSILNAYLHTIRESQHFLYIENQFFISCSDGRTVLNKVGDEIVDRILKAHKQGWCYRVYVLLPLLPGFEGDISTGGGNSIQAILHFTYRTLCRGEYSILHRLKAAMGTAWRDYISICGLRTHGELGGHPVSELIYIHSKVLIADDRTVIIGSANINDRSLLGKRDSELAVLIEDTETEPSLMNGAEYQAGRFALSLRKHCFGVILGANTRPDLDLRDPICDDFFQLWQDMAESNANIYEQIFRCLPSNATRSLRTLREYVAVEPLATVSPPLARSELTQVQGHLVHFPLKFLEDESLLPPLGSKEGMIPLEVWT
Chain of full-length human PLD1 (Q13393 other isoform, or with tags, fused parts or gaps): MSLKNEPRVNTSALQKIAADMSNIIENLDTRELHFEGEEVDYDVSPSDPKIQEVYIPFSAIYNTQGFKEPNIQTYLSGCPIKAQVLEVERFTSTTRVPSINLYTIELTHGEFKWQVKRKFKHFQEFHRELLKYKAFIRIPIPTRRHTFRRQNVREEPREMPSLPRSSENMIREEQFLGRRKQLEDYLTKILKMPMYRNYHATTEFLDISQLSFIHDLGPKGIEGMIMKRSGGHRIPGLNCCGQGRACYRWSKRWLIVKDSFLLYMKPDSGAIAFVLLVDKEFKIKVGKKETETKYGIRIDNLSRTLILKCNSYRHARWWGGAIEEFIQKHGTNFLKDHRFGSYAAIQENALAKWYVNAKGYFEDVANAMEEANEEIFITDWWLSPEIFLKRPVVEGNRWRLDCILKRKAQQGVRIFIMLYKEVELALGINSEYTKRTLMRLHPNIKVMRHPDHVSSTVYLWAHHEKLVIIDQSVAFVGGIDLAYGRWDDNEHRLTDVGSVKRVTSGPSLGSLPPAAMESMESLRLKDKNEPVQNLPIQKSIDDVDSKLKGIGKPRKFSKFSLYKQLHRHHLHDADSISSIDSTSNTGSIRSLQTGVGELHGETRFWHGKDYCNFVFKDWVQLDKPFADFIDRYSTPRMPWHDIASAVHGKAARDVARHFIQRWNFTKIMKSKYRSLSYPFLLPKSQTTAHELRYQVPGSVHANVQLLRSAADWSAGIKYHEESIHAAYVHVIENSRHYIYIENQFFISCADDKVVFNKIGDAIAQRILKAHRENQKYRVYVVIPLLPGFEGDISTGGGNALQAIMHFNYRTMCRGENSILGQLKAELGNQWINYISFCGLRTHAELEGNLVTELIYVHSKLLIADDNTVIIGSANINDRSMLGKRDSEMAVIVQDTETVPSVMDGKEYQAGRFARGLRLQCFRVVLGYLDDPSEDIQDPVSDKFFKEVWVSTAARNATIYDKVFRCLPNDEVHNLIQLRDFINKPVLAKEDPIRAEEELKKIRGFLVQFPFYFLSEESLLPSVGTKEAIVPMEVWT

Structure (SMILES)	IC50 (full-length human PLD1) [µM]	IC50 (full-length human PLD2) [µM]	other results
C[C@@H](C[C@H]1CC[C@]2(CC1)OC(=O)NN=C2c1ccc(OC(F)F)cc1Br)NC(=O)c1ccn[nH]1 [Example 143]	0.027	0.025	
Cc1cc(C(=O)N[C@@H](C)CN2CCC3(CC2)OC(=O)NN=C3c2ccc(Br)cc2C(F)(F)F)[nH]n1 [Example 331]	0.032	0.022	
CNC(=O)C(=O)N[C@@H](C)C[C@H]1CC[C@]2(CC1)OC(=O)NN=C2c1ccc(F)cc1Br [Example 14]	0.01	< 0.01	
Cc1cc(C(=O)N[C@@H](C)C[C@H]2CC[C@]3(CC2)OC(=O)NN=C3c2cnc(N3CCOCC3)cc2C)[nH]n1 [Example 221]	0.016	< 0.01	
COc1cc(C)c(C2=NNC(=O)O[C@]23CC[C@@H](C[C@H](C)NC(=O)N2CCn4ncnc4C2)CC3)cn1 [Example 257]	0.262	0.215	
CNC(=O)C(=O)N[C@@H](C)C[C@H]1CC[C@]2(CC1)OC(=O)NN=C2c1nccn1CC1CC1 [Example 82]	0.421	0.358	
CNC(=O)C(=O)N[C@@H](C)C[C@H]1CC[C@]2(CC1)OC(=O)NN=C2c1cc(OC)c(F)cc1Br [Example 2-050]	0.012	< 0.01	
CC(C)S(=O)(=O)c1ccc(C2=NNC(=O)O[C@]23CC[C@@H](C[C@H](C)NC(=O)c2cc(Cl)no2)CC3)c(Br)c1 [Example 67]	< 0.01	< 0.01	
C[C@@H](C[C@H]1CC[C@]2(CC1)OC(=O)NN=C2c1cc(Cl)ccc1Cl)NC(=O)c1cc2ccccn2n1 [Example 313]	0.023	0.025	
C[C@@H](C[C@H]1CC[C@]2(CC1)OC(=O)NN=C2c1ccc(C#N)cc1Br)NC(=O)N1CCn2nccc2C1 [Example 270]	0.017	< 0.01	
Cc1cc(C(=O)N[C@@H](C)C[C@H]2CC[C@]3(CC2)OC(=O)NN=C3c2ccc(C(=O)O)cc2C)[nH]n1 [Example 201]	0.328	0.371	
C[C@@H](C[C@H]1CC[C@]2(CC1)OC(=O)NN=C2c1ccc(F)cc1Br)NC(=O)C(=O)NC1CC1 [Example 203]	0.012	< 0.01	
CNC(=O)C(=O)N[C@@H](C)C[C@H]1CC[C@]2(CC1)OC(=O)NN=C2c1ccc(Br)cc1Br [Example 60]	< 0.01	< 0.01	
C[C@@H](C[C@H]1CC[C@]2(CC1)OC(=O)NN=C2c1ccc(F)cc1Br)NC(=O)OC(C)(C)C [Example 34]			inhibition at 10 µM (full-length human PLD1; 10 μM compound, read-out: PLD1 inhibition rate at 10 μM): 36%; inhibition at 10 µM (full-length human PLD1; [1]): 36%; inhibition at 10 µM (full-length human PLD2; 10 μM compound, read-out: PLD2 inhibition rate at 10 μM): 17%; inhibition at 10 µM (full-length human PLD2; [2]): 17%
C[C@@H](C[C@H]1CC[C@]2(CC1)OC(=O)NN=C2c1ccc(S(C)(=O)=O)cc1Br)NC(=O)c1cc(Cl)no1 [Example 48]	0.014	< 0.01	
C[C@@H](C[C@H]1CC[C@]2(CC1)OC(=O)NN=C2c1ccc(C#N)cc1Br)NC(=O)c1cc(Cl)no1 [Example 71]	< 0.01	< 0.01	
Cc1cc(C(=O)N[C@@H](C)[C@@H](C)N2CCC3(CC2)OC(=O)NN=C3c2ccc(F)cc2Br)[nH]n1 [Example 290]	0.122	0.046	
CNC(=O)C(=O)N[C@@H](C)C[C@H]1CC[C@]2(CC1)OC(=O)NN=C2c1ccc(C(F)(F)F)cc1C [Example 181]	0.013	< 0.01	
Cc1cc(C(=O)N[C@@H](C)C[C@H]2CC[C@]3(CC2)OC(=O)NN=C3c2ccc(C#N)cc2Cl)[nH]n1 [Example 176]	0.029	0.029	
C[C@@H](C[C@]1(C#N)CC[C@@]2(CC1)OC(=O)NN=C2c1cc(OCC(F)F)ncc1Br)NC(=O)C(=O)NC1CC1 [Example 2-101]			inhibition at 10 µM (full-length human PLD1; read-out: human PLD1 % inhibition at 10 μM): 13%; inhibition at 10 µM (full-length human PLD1; [1]): 13%; inhibition at 10 µM (full-length human PLD2; read-out: human PLD2 % inhibition at 10 μM): 28%; inhibition at 10 µM (full-length human PLD2; [2]): 28%
C[C@@H](C[C@H]1CC[C@]2(CC1)OC(=O)NN=C2c1ccc(OCC(C)(C)O)cc1Br)NC(=O)c1cc2ccccc2o1 [Example 132]	0.014	< 0.01	
CNC(=O)C(=O)N[C@@H](C)C[C@H]1CC[C@]2(CC1)OC(=O)NN=C2c1ccc(F)cc1C1CC1 [Example 64]	0.018	< 0.01	
CNC(=O)C(=O)N[C@@H](C)C[C@H]1CC[C@]2(CC1)OC(=O)NN=C2c1cnc(N2CCC(F)(F)C2)cc1C [Example 248]	0.017	< 0.01	
CC(=O)C(=O)N[C@@H](C)C[C@H]1CC[C@]2(CC1)OC(=O)NN=C2c1ccc(F)cc1Br [Example 30]	0.123	0.153	
Cc1cc(C(=O)N[C@@H](C)CN2CCC3(CC2)OC(=O)NN=C3c2ccc(Cl)cc2C)[nH]n1 [Example 217]	0.017	< 0.01	
